Results published in ChEMBL document CHEMBL1201862, “PubChem BioAssay data set” (2004).
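Exposure lasted 48 hours, with cells grown in 96-well plates and compounds tested at five concentrations. GI50 = concentration required for 50% inhibition of growth.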 Activity calls are given as the source filed them. Cut-off read from the data, not from the text of the source: active = GI50 up to about 1.1 µM and inactive = higher.

Legend:
Assay in all cases: NCI tumour cell line growth inhibition, 48 h
COLO 205 = tested on: COLO 205
EKVX = tested on: EKVX
SNB-75 = tested on: SNB-75
HCC 2998 = tested on: HCC 2998
MOLT-4 = tested on: MOLT-4
A549 = tested on: A549
UO-31 = tested on: UO-31
Malme-3M = tested on: Malme-3M
SN12C = tested on: SN12C
NCI-H522 = tested on: NCI-H522
LOX IMVI = tested on: LOX IMVI
OVCAR-8 = tested on: OVCAR-8
RPMI-8226 = tested on: RPMI-8226
HL-60 = tested on: HL-60
NCI-H23 = tested on: NCI-H23
TK-10 = tested on: TK-10
ACHN = tested on: ACHN
OVCAR-5 = tested on: OVCAR-5
A498 = tested on: A498
SK-MEL-2 = tested on: SK-MEL-2

Structure (SMILES)	GI50 (COLO 205)	GI50 (EKVX)	GI50 (SNB-75)	GI50 (HCC 2998)	GI50 (MOLT-4)	GI50 (A549)	GI50 (UO-31)	GI50 (Malme-3M)	GI50 (SN12C)	GI50 (NCI-H522)	GI50 (LOX IMVI)	GI50 (OVCAR-8)	GI50 (RPMI-8226)	GI50 (HL-60)	GI50 (NCI-H23)	GI50 (TK-10)	GI50 (ACHN)	GI50 (OVCAR-5)	GI50 (A498)	GI50 (SK-MEL-2)
Oc1cc(-c2ccccn2)nc2cc(F)ccc12	74.6 µM (inactive)	42.9 µM (inactive)	26.5 µM (inactive)	> 100 µM (inactive)	> 100 µM (inactive)	46 µM (inactive)	> 100 µM (inactive)	90.2 µM (inactive)	> 100 µM (inactive)	25.8 µM (inactive)	71 µM (inactive)	> 100 µM (inactive)	92.3 µM (inactive)	> 100 µM (inactive)	> 100 µM (inactive)	> 100 µM (inactive)	> 100 µM (inactive)	> 100 µM (inactive)	–	–
c1ccc(SC(Sc2ccccc2)c2ccc3c(c2)OCO3)cc1	–	37.2 µM (inactive)	–	–	38.1 µM (inactive)	> 100 µM (inactive)	> 100 µM (inactive)	> 100 µM (inactive)	> 100 µM (inactive)	85.9 µM (inactive)	> 100 µM (inactive)	> 100 µM (inactive)	–	> 100 µM (inactive)	> 100 µM (inactive)	> 100 µM (inactive)	> 100 µM (inactive)	> 100 µM (inactive)	90.2 µM (inactive)	> 100 µM (inactive)
CN(C)c1ccc(/C=C2\Oc3ccccc3C2=O)cc1	> 100 µM (inactive)	> 100 µM (inactive)	> 100 µM (inactive)	> 100 µM (inactive)	> 100 µM (inactive)	> 100 µM (inactive)	52.2 µM (inactive)	–	> 100 µM (inactive)	90.4 µM (inactive)	–	> 100 µM (inactive)	> 100 µM (inactive)	> 100 µM (inactive)	> 100 µM (inactive)	> 100 µM (inactive)	> 100 µM (inactive)	–	–	–
Cc1cc2nc3c(C#N)c4c(c(Nc5ccc(Cl)cc5)n3c2cc1C)CCC4	25.2 µM (inactive)	33.8 µM (inactive)	30.5 µM (inactive)	–	6.03 µM (inactive)	–	–	23.8 µM (inactive)	19.4 µM (inactive)	13.6 µM (inactive)	18.7 µM (inactive)	19.3 µM (inactive)	3.66 µM (inactive)	–	26.3 µM (inactive)	11.1 µM (inactive)	20.6 µM (inactive)	17.3 µM (inactive)	> 100 µM (inactive)	–
O=C1C(Cl)C(c2ccccc2Cl)N1n1cnc2ccccc2c1=O (stereo not given)	> 100 µM (inactive)	18.5 µM (inactive)	20.2 µM (inactive)	39.6 µM (inactive)	68.5 µM (inactive)	> 100 µM (inactive)	7.52 µM (inactive)	> 100 µM (inactive)	> 100 µM (inactive)	25.8 µM (inactive)	19.6 µM (inactive)	> 100 µM (inactive)	35 µM (inactive)	8.69 µM (inactive)	49.1 µM (inactive)	46.7 µM (inactive)	76.2 µM (inactive)	> 100 µM (inactive)	–	24.7 µM (inactive)
CCOC(=O)C1(C#N)C(c2ccccc2)CC(O)(c2ccc(Cl)cc2)C(C(=O)c2ccc(Cl)cc2)C1c1ccccc1 (stereo not given)	> 100 µM (inactive)	52.2 µM (inactive)	21.1 µM (inactive)	> 100 µM (inactive)	80.4 µM (inactive)	> 100 µM (inactive)	> 100 µM (inactive)	> 100 µM (inactive)	> 100 µM (inactive)	35 µM (inactive)	> 100 µM (inactive)	> 100 µM (inactive)	76.6 µM (inactive)	> 100 µM (inactive)	> 100 µM (inactive)	> 100 µM (inactive)	> 100 µM (inactive)	> 100 µM (inactive)	–	> 100 µM (inactive)
CN(C)CC/C(=N\Nc1ccc(Cl)c(Cl)c1)c1ccccc1	1.77 µM (inactive)	1.82 µM (inactive)	2.4 µM (inactive)	–	2.17 µM (inactive)	1.96 µM (inactive)	1.45 µM (inactive)	3.24 µM (inactive)	2.14 µM (inactive)	2.16 µM (inactive)	1.69 µM (inactive)	1.87 µM (inactive)	2.31 µM (inactive)	2.29 µM (inactive)	1.84 µM (inactive)	1.98 µM (inactive)	1.69 µM (inactive)	2.56 µM (inactive)	2.81 µM (inactive)	–
CCCNC(=O)OCc1c(COC(=O)NCCC)c(-c2ccc(Cl)c(Cl)c2)n2c1CCC2	3.64 µM (inactive)	11.2 µM (inactive)	–	–	3.11 µM (inactive)	6.61 µM (inactive)	2.86 µM (inactive)	2.94 µM (inactive)	3.11 µM (inactive)	1.16 µM (inactive)	3.78 µM (inactive)	4.36 µM (inactive)	5.02 µM (inactive)	2.64 µM (inactive)	5.93 µM (inactive)	1.86 µM (inactive)	2.01 µM (inactive)	3.76 µM (inactive)	1.26 µM (inactive)	–
CN1C(=S)CSc2ccccc21	> 100 µM (inactive)	44.1 µM (inactive)	42.9 µM (inactive)	–	> 100 µM (inactive)	> 100 µM (inactive)	42.3 µM (inactive)	> 100 µM (inactive)	> 100 µM (inactive)	> 100 µM (inactive)	> 100 µM (inactive)	> 100 µM (inactive)	89.7 µM (inactive)	> 100 µM (inactive)	> 100 µM (inactive)	> 100 µM (inactive)	> 100 µM (inactive)	> 100 µM (inactive)	–	> 100 µM (inactive)
O=C1CN=C(C[N+](=O)[O-])c2ccccc21	> 100 µM (inactive)	> 100 µM (inactive)	> 100 µM (inactive)	–	> 100 µM (inactive)	> 100 µM (inactive)	> 100 µM (inactive)	> 100 µM (inactive)	> 100 µM (inactive)	> 100 µM (inactive)	–	> 100 µM (inactive)	> 100 µM (inactive)	> 100 µM (inactive)	> 100 µM (inactive)	–	> 100 µM (inactive)	> 100 µM (inactive)	> 100 µM (inactive)	> 100 µM (inactive)
N#CC(C(=O)O)C(c1c(Cl)cccc1Cl)C(C#N)C(=O)O (stereo not given)	> 100 µM (inactive)	> 100 µM (inactive)	–	–	> 100 µM (inactive)	> 100 µM (inactive)	> 100 µM (inactive)	> 100 µM (inactive)	> 100 µM (inactive)	> 100 µM (inactive)	> 100 µM (inactive)	> 100 µM (inactive)	> 100 µM (inactive)	> 100 µM (inactive)	> 100 µM (inactive)	> 100 µM (inactive)	> 100 µM (inactive)	> 100 µM (inactive)	> 100 µM (inactive)	> 100 µM (inactive)
CCCCCCCCCCCCCCCCCc1nc(Cl)nc(Cl)c1Cl	> 100 µM (inactive)	–	> 100 µM (inactive)	> 100 µM (inactive)	76.7 µM (inactive)	> 100 µM (inactive)	> 100 µM (inactive)	> 100 µM (inactive)	> 100 µM (inactive)	> 100 µM (inactive)	> 100 µM (inactive)	> 100 µM (inactive)	24.4 µM (inactive)	> 100 µM (inactive)	> 100 µM (inactive)	> 100 µM (inactive)	> 100 µM (inactive)	> 100 µM (inactive)	–	–
O=S(=O)(N/N=C1\CC2CCC1C2)c1ccccc1 (stereo not given)	> 100 µM (inactive)	> 100 µM (inactive)	> 100 µM (inactive)	–	> 100 µM (inactive)	> 100 µM (inactive)	> 100 µM (inactive)	> 100 µM (inactive)	> 100 µM (inactive)	> 100 µM (inactive)	> 100 µM (inactive)	> 100 µM (inactive)	> 100 µM (inactive)	> 100 µM (inactive)	> 100 µM (inactive)	> 100 µM (inactive)	> 100 µM (inactive)	> 100 µM (inactive)	–	> 100 µM (inactive)
CCCNC(=O)NNC(=O)c1c[nH]c2nc(C)ccc2c1=O	> 100 µM (inactive)	> 100 µM (inactive)	–	–	> 100 µM (inactive)	> 100 µM (inactive)	> 100 µM (inactive)	> 100 µM (inactive)	> 100 µM (inactive)	> 100 µM (inactive)	> 100 µM (inactive)	> 100 µM (inactive)	> 100 µM (inactive)	> 100 µM (inactive)	> 100 µM (inactive)	> 100 µM (inactive)	> 100 µM (inactive)	> 100 µM (inactive)	> 100 µM (inactive)	> 100 µM (inactive)
CN(c1ccc(Cl)cc1)S(=O)(=O)c1ccc([N+](=O)[O-])cc1	> 100 µM (inactive)	> 100 µM (inactive)	> 100 µM (inactive)	> 100 µM (inactive)	> 100 µM (inactive)	> 100 µM (inactive)	> 100 µM (inactive)	84.7 µM (inactive)	> 100 µM (inactive)	> 100 µM (inactive)	> 100 µM (inactive)	> 100 µM (inactive)	> 100 µM (inactive)	59.4 µM (inactive)	> 100 µM (inactive)	> 100 µM (inactive)	> 100 µM (inactive)	> 100 µM (inactive)	–	> 100 µM (inactive)
COc1ccc(C2=C(OC(C)=O)c3cccn3-c3ccccc3S2)cc1	2.7 µM (inactive)	–	2.41 µM (inactive)	2.95 µM (inactive)	4.06 µM (inactive)	7.53 µM (inactive)	–	2.7 µM (inactive)	1.29 µM (inactive)	–	4.55 µM (inactive)	5.82 µM (inactive)	2.4 µM (inactive)	0.512 µM (active)	1.89 µM (inactive)	> 10 µM (inactive)	–	–	–	–
